Source: patent publication US8282938B2 (priority 2008, dated 2012)

Each sequence was assayed on HLA-A*0201-restricted cytotoxic T lymphocytes. Conditions: mouse, in vivo.
Set-up: species or system mice expressing the HLA-A*0201 molecule (HHD mice)
In the case of GMFNMLSTV [PB1_410], the CTL activity was “high CTL activity” and the Specific killing was 87%.

What follows are sequences tested on HLA-A*2402-restricted cytotoxic T lymphocytes. Conditions: mouse, in vivo.
Set-up: species or system transgenic mice expressing the HLA-A*2402 molecule (A24Tg)
CFNPMIVEL [PA_8] was tested, and the CTL activity was “low activity” and the Specific killing was 10%. EWFRNVLSI [PB1_331] was tested, and the CTL activity was “low activity” and the Specific killing was 7%. In the case of IFLARSALI [NP_257], the CTL activity was “low activity” and the Specific killing was 16%. KTTPRPLRL [PA_262] was tested, and the CTL activity was “high CTL activity” and the Specific killing was 58%. In the case of LWILDRLFF [M2_40], the CTL activity was “low activity” and the Specific killing was 10%. For MYQKCCTLF [PB1_688], the CTL activity was “high CTL activity” and the Specific killing was 89%. For RYTKTTYWW [PB1_430], the CTL activity was “high CTL activity” and the Specific killing was 96%. In the case of SFSFGGFTF [PB2_322], the CTL activity was “high CTL activity” and the Specific killing was 38%. For SLLTEVETL [M2_2], the CTL activity was “low activity”. In the case of SYINRTGTF [PB1_482], the CTL activity was “high CTL activity” and the Specific killing was 56%. In the case of SYLIRALTL [PB1_216], the CTL activity was “high CTL activity” and the Specific killing was 22%. TYFEKVERL [PB2_117] was tested, and the CTL activity was “low activity” and the Specific killing was 13%. For TYQWIIRNW [PB2_549], the CTL activity was “high CTL activity” and the Specific killing was 96%. YYLEKANKI [PA_130] was tested, and the CTL activity was “high CTL activity” and the Specific killing was 95%.
